Experimental data published in US8633207B2, “Quinazoline compounds and methods of use thereof” (Ambit Biosciences Corporation, priority 2010, dated 2014).

Legend:
[1] = system: GM-CSFR/JAK2/STAT5 pathway; test: csTF-1 cell-based reporter assay; conditions: Homo sapiens; csTF-1 cells, GM-CSF at 2 ng/mL, 4 hours; read-out: Cell Assay: CS TF-1 reporter assay IC50
Method: csTF-1 Cell-Based Reporter Assay
csTF-1 cells are derived from the human erythroleukemia cell line that is growth dependent on GM-CSF and has an intact GM-CSFR/JAK2/STAT5 pathway. The cell line contains stably integrated beta-lactamase reporter gene under the control of the […] (irf 1) response element recognized by the activated transcription factor STATS. csTF-1 cells (Invitrogen K1219) were washed with assay media (97% OPTIMEM/0.5% dialyzed FBS/0.1 mM NEAA/1 mM Na pyr/P/S) and seeded in the same media at 5×10^5 cell/mL in T150 flask. After 16 hour incubation, cells were seeded at 2×10^5 cell/well in 50 μl volume, into Costar, clear bottom, 96-well assay plates. Serial dilutions of compounds were added to the plates with final DMSO concentration at 0.5% and GM-CSF at 2 ng/mL and the plates were then incubated at […] and 5% CO2 for 4 hours. The plates were brought to room temperature before adding Substrate Mixture according to manufacturer's protocol (Invitrogen, Catalog #K1085). The assay plates containing the substrate mixture were incubated in the dark at room temperature for 2 hours. Blue and green fluorescence was measured with excitation at 409 nm and emission at 460 nm (for blue) and excitation at 409 nm and emission at 530 nm (for green) using Spectra Max Gemini EM.

JAK2 = target: T1, JAK2 (Homo sapiens, UniProt O60674); test: Competition binding assay to determine Kd against JAK kinases: JAK2
T1 construct: made in house; host or cells: T7 phage display, or HEK-293 cells (alternative)
T1 sequence (O60674 whole entry): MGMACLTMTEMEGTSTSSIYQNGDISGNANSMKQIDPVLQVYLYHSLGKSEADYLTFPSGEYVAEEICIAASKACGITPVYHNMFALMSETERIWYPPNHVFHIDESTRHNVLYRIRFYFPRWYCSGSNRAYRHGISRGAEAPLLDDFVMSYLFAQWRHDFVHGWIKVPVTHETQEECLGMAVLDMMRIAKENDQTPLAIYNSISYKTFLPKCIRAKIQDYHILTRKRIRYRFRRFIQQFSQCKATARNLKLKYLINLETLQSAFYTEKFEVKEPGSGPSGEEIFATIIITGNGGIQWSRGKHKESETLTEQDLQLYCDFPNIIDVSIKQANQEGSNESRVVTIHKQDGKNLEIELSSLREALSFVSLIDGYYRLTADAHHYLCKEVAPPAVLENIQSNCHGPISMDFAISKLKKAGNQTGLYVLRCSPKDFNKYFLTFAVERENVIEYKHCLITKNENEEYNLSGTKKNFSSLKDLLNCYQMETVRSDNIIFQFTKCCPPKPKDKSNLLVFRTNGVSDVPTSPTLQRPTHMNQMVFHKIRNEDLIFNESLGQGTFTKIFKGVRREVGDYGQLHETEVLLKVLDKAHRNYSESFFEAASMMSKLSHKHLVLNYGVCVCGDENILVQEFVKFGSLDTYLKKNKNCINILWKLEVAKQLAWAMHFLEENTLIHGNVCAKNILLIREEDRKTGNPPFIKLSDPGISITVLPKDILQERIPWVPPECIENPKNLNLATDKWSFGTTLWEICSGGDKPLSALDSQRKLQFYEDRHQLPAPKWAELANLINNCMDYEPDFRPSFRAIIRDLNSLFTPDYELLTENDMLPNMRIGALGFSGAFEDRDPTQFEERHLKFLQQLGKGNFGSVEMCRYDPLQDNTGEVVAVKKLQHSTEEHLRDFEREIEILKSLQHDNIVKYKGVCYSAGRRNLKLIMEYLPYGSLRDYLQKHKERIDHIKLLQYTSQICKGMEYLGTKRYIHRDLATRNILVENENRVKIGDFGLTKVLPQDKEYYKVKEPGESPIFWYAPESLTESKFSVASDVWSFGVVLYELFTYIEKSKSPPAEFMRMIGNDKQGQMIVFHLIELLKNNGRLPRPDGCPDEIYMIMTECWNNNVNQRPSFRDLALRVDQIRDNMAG
Excerpt: (§1) Competition Binding Assay to Determine Binding Constants (Kd) of the Compounds Against JAK Kinases
(§2) Competition binding assays used herein were developed, validated and performed as described in Fabian et al., Nature Biotechnology 2005, 23, 329-336. Kinases were produced as fusions to T7 phage (See, Fabian et al. or WO04/015142) or alternatively, the kinases were expressed in HEK-293 cells and subsequently tagged with DNA for PCR detection (See, WO08/005,310). For the binding assays, streptavidin-coated magnetic beads were treated with biotinylated affinity ligands for 30 min at rt to generate affinity resins. The liganded beads were blocked with excess biotin and washed with blocking buffer (SeaBlock (Pierce), 1% BSA, 0.05% Tween 20, 1 mM DTT) to remove unbound ligand and to reduce non-specific binding. Binding reactions were assembled by combining kinase, liganded affinity beads, and test compounds in 1× binding buffer (20% SeaBlock, 0.17×PBS, 0.05% Tween 20, 6 mM DTT). Test compounds were prepared as 100× stocks in DMSO and rapidly diluted into the aqueous environment. DMSO was added to control assays lacking a test compound. Primary screen interactions were performed in polypropylene 384-well plates in a final volume of 34 μL, while Kd determinations were performed in polystyrene 96-well plates in a final volume of 135 μL. The assay plates were incubated at room temperature with shaking for 1 hour, long enough for binding reactions to reach equilibrium, and the affinity beads were washed extensively with wash buffer (1×PBS, 0.05% Tween 20) to remove unbound protein. The beads were then resuspended in elution buffer (1×PBS, 0.05% Tween 20, 2 μM non-biotinylated affinity ligand) and incubated at room temperature with shaking for 30 min. The kinase concentration in the eluates was measured by quantitative PCR. Each kinase was tested individually against each compound. Kds were determined using eleven serial threefold dilutions. A selectivity score, which is a quantitative measure of selectivity of a compound against a panel of enzymes, may be calculated for a compound by dividing the number of enzymes for which a compound meets a set criteria, (for example, a binding constant of 100 nM or less), by the total number of enzymes tested.

JAK3 = target: T2, JAK3 (Homo sapiens, UniProt P52333); test: Competition binding assay to determine Kd against JAK kinases: JAK3
T2 construct: made in house; host or cells: T7 phage display, or HEK-293 cells (alternative)
T2 sequence (P52333 1-1124): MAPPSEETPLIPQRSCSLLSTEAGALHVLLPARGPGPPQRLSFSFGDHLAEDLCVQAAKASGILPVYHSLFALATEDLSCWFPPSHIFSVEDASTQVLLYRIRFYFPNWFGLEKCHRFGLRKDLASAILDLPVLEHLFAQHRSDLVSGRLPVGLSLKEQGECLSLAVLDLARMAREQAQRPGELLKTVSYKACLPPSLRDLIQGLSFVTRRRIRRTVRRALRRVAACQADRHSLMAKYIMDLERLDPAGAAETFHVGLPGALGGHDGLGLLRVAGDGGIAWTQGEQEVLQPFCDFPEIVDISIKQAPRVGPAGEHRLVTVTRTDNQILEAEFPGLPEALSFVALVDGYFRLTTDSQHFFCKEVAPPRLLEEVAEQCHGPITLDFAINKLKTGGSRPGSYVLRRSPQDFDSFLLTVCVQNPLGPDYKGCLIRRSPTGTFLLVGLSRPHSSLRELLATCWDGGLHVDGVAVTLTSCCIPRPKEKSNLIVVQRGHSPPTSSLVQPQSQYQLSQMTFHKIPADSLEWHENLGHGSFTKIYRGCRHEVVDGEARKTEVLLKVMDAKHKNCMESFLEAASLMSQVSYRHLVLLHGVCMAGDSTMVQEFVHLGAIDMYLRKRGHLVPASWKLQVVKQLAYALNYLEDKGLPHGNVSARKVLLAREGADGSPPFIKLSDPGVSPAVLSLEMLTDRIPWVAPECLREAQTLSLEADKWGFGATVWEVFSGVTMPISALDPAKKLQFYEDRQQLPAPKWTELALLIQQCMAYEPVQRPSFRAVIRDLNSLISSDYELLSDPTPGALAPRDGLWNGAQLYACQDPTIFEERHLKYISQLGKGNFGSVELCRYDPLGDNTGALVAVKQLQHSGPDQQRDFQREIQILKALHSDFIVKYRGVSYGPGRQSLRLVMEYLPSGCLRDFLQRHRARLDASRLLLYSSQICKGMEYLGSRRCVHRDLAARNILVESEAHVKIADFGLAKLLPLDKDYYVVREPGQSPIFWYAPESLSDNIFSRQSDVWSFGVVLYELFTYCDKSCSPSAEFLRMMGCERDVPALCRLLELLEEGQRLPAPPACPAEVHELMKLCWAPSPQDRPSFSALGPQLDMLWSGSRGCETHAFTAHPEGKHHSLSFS
Excerpt: as §1, §2

Tyk2 = target: T3, Tyk2 (Homo sapiens, UniProt P29597); test: Competition binding assay to determine Kd against JAK kinases: Tyk2
T3 construct: made in house; host or cells: T7 phage display, or HEK-293 cells (alternative)
T3 sequence (P29597 whole entry): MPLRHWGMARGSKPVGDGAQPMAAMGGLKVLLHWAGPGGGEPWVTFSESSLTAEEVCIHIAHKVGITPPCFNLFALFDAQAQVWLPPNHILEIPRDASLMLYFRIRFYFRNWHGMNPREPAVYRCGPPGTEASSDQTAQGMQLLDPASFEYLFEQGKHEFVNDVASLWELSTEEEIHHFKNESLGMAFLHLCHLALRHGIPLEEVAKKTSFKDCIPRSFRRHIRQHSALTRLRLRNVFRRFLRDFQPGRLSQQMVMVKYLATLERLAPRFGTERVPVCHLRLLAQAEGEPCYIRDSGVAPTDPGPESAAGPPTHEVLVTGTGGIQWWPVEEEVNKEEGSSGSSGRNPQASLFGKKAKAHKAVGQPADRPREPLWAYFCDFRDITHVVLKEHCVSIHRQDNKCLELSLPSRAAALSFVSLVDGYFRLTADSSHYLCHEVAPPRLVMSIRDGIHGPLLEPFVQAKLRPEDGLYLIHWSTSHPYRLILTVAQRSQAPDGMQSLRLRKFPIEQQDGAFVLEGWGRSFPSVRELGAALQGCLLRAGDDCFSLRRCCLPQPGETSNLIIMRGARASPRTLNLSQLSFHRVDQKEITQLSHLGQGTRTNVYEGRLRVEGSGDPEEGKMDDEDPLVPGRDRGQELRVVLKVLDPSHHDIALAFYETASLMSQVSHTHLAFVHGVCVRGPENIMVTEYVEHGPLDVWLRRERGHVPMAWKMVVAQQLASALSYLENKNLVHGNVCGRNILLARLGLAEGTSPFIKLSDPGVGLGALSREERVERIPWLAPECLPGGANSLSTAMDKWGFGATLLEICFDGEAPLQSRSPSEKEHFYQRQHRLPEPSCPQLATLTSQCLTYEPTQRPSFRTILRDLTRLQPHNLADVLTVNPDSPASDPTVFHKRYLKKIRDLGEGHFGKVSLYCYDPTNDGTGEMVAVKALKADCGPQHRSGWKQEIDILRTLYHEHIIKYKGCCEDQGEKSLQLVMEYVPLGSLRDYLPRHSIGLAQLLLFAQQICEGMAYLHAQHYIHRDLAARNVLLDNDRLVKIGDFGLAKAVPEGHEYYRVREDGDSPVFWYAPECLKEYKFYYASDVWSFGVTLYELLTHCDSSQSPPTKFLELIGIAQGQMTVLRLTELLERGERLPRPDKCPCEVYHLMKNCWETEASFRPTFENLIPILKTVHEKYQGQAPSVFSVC
Excerpt: as §1, §2

| SMILES | IC50 [1] [nM] | Kd (JAK2) [nM] | Kd (JAK3) [nM] | Kd (Tyk2) [nM] |
| --- | --- | --- | --- | --- |
| Cc1cc(Nc2nc(C(F)(F)c3ccc(F)cn3)nc3ccccc23)n[nH]1 [Example 2, 2-(difluoro(5-fluoropyridin-2-yl)methyl)-N-(5-methyl-1H-pyrazol-3-yl)quinazolin-4-amine] | ≤ 100 | ≤ 1 | ≤ 10 | ≤ 10 |
| Cc1cc(Nc2nc(C(F)(F)c3ccc(F)cn3)nc3c(OC(F)(F)F)cccc23)n[nH]1 [Example 34, 2-(difluoro(5-fluoropyridin-2-yl)methyl)-N-(5-methyl-1H-pyrazol-3-yl)-8-(trifluoromethoxy)quinazolin-4-amine] | 100 to 500 | 1 to 10 | 10 to 100 | ≤ 10 |
| Cc1cnc(Nc2nc(C(F)(F)c3ccc(F)cn3)nc3ccccc23)s1 [Example 30, N-(2-(difluoro(5-fluoropyridin-2-yl)methyl)quinazolin-4-yl)-5-methylthiazol-2-amine] | 100 to 500 | 1 to 10 | > 100 | 10 to 100 |
| Cc1cc(Nc2nc(C(F)(F)c3ccc(F)cn3)nc3c(C(=O)O)cccc23)n[nH]1 [Example 53, 2-(difluoro(5-fluoropyridin-2-yl)methyl)-4-((5-methyl-1H-pyrazol-3-yl)amino)quinazoline-8-carboxylic acid] | 100 to 500 | ≤ 1 | ≤ 10 | ≤ 10 |
| Cc1cc(Nc2nc(C(F)(F)c3ccc(F)cn3)nc3c(F)cccc23)n[nH]1 [Example 12, 2-(difluoro(5-fluoropyridin-2-yl)methyl)-8-fluoro-N-(3-methyl-1H-pyrazol-5-yl)quinazolin-4-amine] | ≤ 100 | ≤ 1 | ≤ 10 | ≤ 10 |
| COc1ccc2c(Nc3cc(C)[nH]n3)nc(C(F)(F)c3ccc(F)cn3)nc2c1 [Example 6, 2-(difluoro(5-fluoropyridin-2-yl)methyl)-7-methoxy-N-(5-methyl-1H-pyrazol-3-yl)quinazolin-4-amine] | ≤ 100 | ≤ 1 | ≤ 10 | ≤ 10 |
| Cc1cc(Nc2nc(C(F)(F)c3ccc(F)cn3)nc3c(C#N)cccc23)n[nH]1 [Example 35, 2-(difluoro(5-fluoropyridin-2-yl)methyl)-4-((5-methyl-1H-pyrazol-3-yl)amino)quinazoline-8-carbonitrile] | 100 to 500 | ≤ 1 | 10 to 100 | ≤ 10 |
| Cc1cc(Nc2nc(C(F)(F)c3ccc(F)cn3)nc3cc(Br)ccc23)n[nH]1 [Example 7, 7-bromo-2-(difluoro(5-fluoropyridin-2-yl)methyl)-N-(5-methyl-1H-pyrazol-3-yl)quinazolin-4-amine] | ≤ 100 | ≤ 1 | ≤ 10 | ≤ 10 |
| COc1cc(Nc2nc(C(F)(F)c3ccc(F)cn3)nc3ccccc23)n[nH]1 [Example 5, 2-(difluoro(5-fluoropyridin-2-yl)methyl)-N-(5-methoxy-1H-pyrazol-3-yl)quinazolin-4-amine] | 100 to 500 | ≤ 1 | 10 to 100 | ≤ 10 |
| Cc1cc(Nc2nc(C(F)(F)c3ncc(F)cn3)nc3ccccc23)n[nH]1 [Example 3, 2-(difluoro(5-fluoropyrimidin-2-yl)methyl)-N-(5-methyl-1H-pyrazol-3-yl)quinazolin-4-amine] | ≤ 100 | ≤ 1 | 10 to 100 | ≤ 10 |
| Cc1cc(Nc2nc(C(F)(F)c3ccc(F)cn3)nc3cc(C#N)ccc23)n[nH]1 [Example 8, 2-(difluoro(5-fluoropyridin-2-yl)methyl)-4-(5-methyl-1H-pyrazol-3-ylamino)quinazoline-7-carbonitrile] | ≤ 100 | 1 to 10 | 10 to 100 | ≤ 10 |
| CCc1cccc2c(Nc3cc(C)[nH]n3)nc(C(F)(F)c3ccc(F)cn3)nc12 [Example 36, 2-(difluoro(5-fluoropyridin-2-yl)methyl)-8-ethyl-N-(5-methyl-1H-pyrazol-3-yl)quinazolin-4-amine] | 100 to 500 | ≤ 1 | 10 to 100 | ≤ 10 |
| Fc1ccc(C(F)(F)c2nc(Nc3nc[nH]n3)c3ccccc3n2)nc1 [Example 31, 2-(difluoro(5-fluoropyridin-2-yl)methyl)-N-(1H-1,2,4-triazol-3-yl)quinazolin-4-amine] | > 500 | > 10 | > 100 | 10 to 100 |
| Cc1cc(Nc2nc(C(F)(F)c3ccc(F)cn3)nc3c([N+](=O)[O-])cccc23)n[nH]1 [Example 49, 2-(difluoro(5-fluoropyridin-2-yl)methyl)-N-(5-methyl-1H-pyrazol-3-yl)-8-nitroquinazolin-4-amine] | 100 to 500 | 1 to 10 | 10 to 100 | 10 to 100 |
| Cc1ccc2c(Nc3cc(C)[nH]n3)nc(C(F)(F)c3ccc(F)cn3)nc2c1 [Example 14, 2-(difluoro(5-fluoropyridin-2-yl)methyl)-7-methyl-N-(5-methyl-1H-pyrazol-3-yl)quinazolin-4-amine] | ≤ 100 | ≤ 1 | ≤ 10 | ≤ 10 |
| Cc1cc(Nc2nc(C(F)(F)c3ccc(F)cn3)nc3c(C)cccc23)n[nH]1 [Example 10, 2-(Difluoro(5-fluoropyridin-2-yl)methyl)-8-methyl-N-(5-methyl-1H-pyrazol-3-yl)quinazolin-4-amine] | ≤ 100 | ≤ 1 | ≤ 10 | ≤ 10 |
| Cc1cc(Nc2nc(C(F)(F)c3ccc(F)cn3)nc3cc(S(C)(=O)=O)ccc23)n[nH]1 [Example 38, 2-(difluoro(5-fluoropyridin-2-yl)methyl)-N-(5-methyl-1H-pyrazol-3-yl)-7-(methylsulfonyl)quinazolin-4-amine] | 100 to 500 | ≤ 1 | ≤ 10 | ≤ 10 |
